Columns and labels:
[1] = tested on: maternal HIV+ sera (antibodies); assay: RIA / ELISA binding of maternal HIV+ sera to gp120 and gp41 peptides (Example 3); parameters: species or system human
In short: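 Maternal sera, diluted 1:50 and 1:500, were bound overnight at 4°C to peptides immobilized at 10 μg/ml (pH 9.6 carbonate) and blocked with 1% BSA. Read-out was ¹²⁵I-labelled anti-human IgG counts or HRP-TMB OD450. Signal with peptide minus without was expressed relative to seronegative serum.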

[2] = tested on: maternal serum samples (antibodies); assay: ELISA peptide-binding of maternal sera, expanded peptide collection (Example 5); parameters: species or system human; conditions: Example 5
Source text: The gp120 and gp41 peptides used in this experiment include peptides 60 [SEQ ID NO:9], 93 [SEQ ID NO:10], 94 [SEQ ID NO:1], 95 [SEQ ID NO:11], 96 [SEQ ID NO:12], 97 [SEQ ID NO:13], 59 [SEQ ID NO:14], 106 [SEQ ID NO:15], 107 [SEQ ID NO:[…]], 1029/33 [SEQ ID NO:2], p18p [SEQ ID NO:17], B138 [SEQ ID NO:3], 466 [SEQ ID NO:4], 497 [SEQ ID NO:18], 117 [SEQ ID NO:19], F560 [SEQ ID NO:20], 35 [SEQ ID NO:5], 120 [SEQ ID NO:21], 121 [SEQ ID NO:22], 123 [SEQ ID NO:23], 36 [SEQ ID NO:24], 40 [SEQ ID NO:25], 41 [SEQ ID NO:26], 649 [SEQ ID NO:6], 53 [SEQ ID NO:7], 55 [SEQ ID NO:27], 128 [SEQ ID NO:28], 129 [SEQ ID NO:29], 132 [SEQ ID NO:30], 57 [SEQ ID NO:8], and 1103/55 [SEQ ID NO:31] from Table 2. These peptides were synthesized based on the same HIV IIIB isolate as were the peptides of Table 2. Alternative designations for these peptides are provided in brackets.
Each of the peptides was at least 85% pure, making them suitable for ELISA analyses. The average length of these peptides was 18 amino acid residues, which allows for a certain degree of local flexibility and conformational folding, thus facilitating detection of antibody species with reactivities to shaped structures.
The maternal serum samples were obtained from the Mothers/Infants Cohort Study described in Example 1. For the ELISA peptide-binding analyses performed essentially as described in Example 3, maternal serum samples were diluted to 1:50 or 1:500 with blocking buffer (1% bovine serum albumin in phosphate-buffered saline containing 0.05% Tween 20). Binding was measured using 10 μg/mL peptide per well and was considered positive if the experimental/control OD450nm ratio was ≥2. Normal (HIV seronegative) human sera were used as controls.

[3] = tested on: maternal sera (antibodies); assay: ELISA peptide-binding of maternal sera (Example 6); parameters: species or system human
In short: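 HIV-1 envelope peptides averaging 16 amino acids, covering external and transmembrane glycoprotein, were probed by ELISA. Third-trimester maternal sera, classed as transmitter or non-transmitter by child diagnosis, were each run on at least 40 peptides. Values give percent of sera binding a peptide.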

HIV-1 = conditions: antisera (animals); cited from earlier work

In the case of CTKAKRRVVQREKA [Peptide 497], the “Number of maternal sera binding to peptide” value ([1]; 20 maternal sera) is reported as “Sixteen”, the “Percentage of sera samples demonstrating binding to peptide, non-transmitter” value ([1]; Non-transmitter group, n = 13) is reported as 71% and the “Binding of maternal HIV+ serum to peptide (sera/NHS ratio)” value (from here on “Binding … (sera/NHS ratio)”) ([1]; Serum No. 1, Non-Transmission Group) is reported as “- (specific OD450 or cpm of sera sample binding to peptide divided by the specific OD450 or cpm of NHS sample binding to peptide, which value is less than 2)”. For the same sequence, the “Binding … (sera/NHS ratio)” value ([1]; Serum No. 2, Non-Transmission Group) was “++ (which value is greater than 3)”, the “Binding … (sera/NHS ratio)” value ([1]; Serum No. 3, Non-Transmission Group) was “++ (which value is greater than 3)” and the “Binding … (sera/NHS ratio)” value ([1]; Serum No. 4, Transmission Group) was “++ (which value is greater than 3)”. For the same sequence, the “Binding … (sera/NHS ratio)” value ([1]; Serum No. 5, Transmission Group) was “+ (which value is between 2 to 3)”, the “Binding … (sera/NHS ratio)” value ([1]; Serum No. 6, Non-Transmission Group) was “+ (which value is between 2 to 3)” and the “Binding … (sera/NHS ratio)” value ([1]; Serum No. 7, Non-Transmission Group) was “- (specific OD450 or cpm of sera sample binding to peptide divided by the specific OD450 or cpm of NHS sample binding to peptide, which value is less than 2)”. For the same sequence, the “Binding … (sera/NHS ratio)” value ([1]; Serum No. 8, Non-Transmission Group) was “++ (which value is greater than 3)”, the “Binding … (sera/NHS ratio)” value ([1]; Serum No. 9, Non-Transmission Group) was “++ (which value is greater than 3)” and the “Binding … (sera/NHS ratio)” value ([1]; Serum No. 10, Transmission Group) was “+ (which value is between 2 to 3)”. The “Binding … (sera/NHS ratio)” value ([1]; Serum No. 11, Non-Transmission Group) was “++ (which value is greater than 3)”, the “Binding … (sera/NHS ratio)” value ([1]; Serum No. 12, Non-Transmission Group) was “- (specific OD450 or cpm of sera sample binding to peptide divided by the specific OD450 or cpm of NHS sample binding to peptide, which value is less than 2)” and the “Binding … (sera/NHS ratio)” value ([1]; Serum No. 13, Transmission Group) was “- (specific OD450 or cpm of sera sample binding to peptide divided by the specific OD450 or cpm of NHS sample binding to peptide, which value is less than 2)”. The “Binding … (sera/NHS ratio)” value ([1]; Serum No. 14, Transmission Group) was “- (specific OD450 or cpm of sera sample binding to peptide divided by the specific OD450 or cpm of NHS sample binding to peptide, which value is less than 2)”, the “Binding … (sera/NHS ratio)” value ([1]; Serum No. 15, Transmission Group) was “++ (which value is greater than 3)” and the “Binding … (sera/NHS ratio)” value ([1]; Serum No. 16, Non-Transmission Group) was “++ (which value is greater than 3)”. The “Binding … (sera/NHS ratio)” value ([1]; Serum No. 17, Non-Transmission Group) was “++ (which value is greater than 3)”, the “Binding … (sera/NHS ratio)” value ([1]; Serum No. 18, Non-Transmission Group) was “+ (which value is between 2 to 3)” and the “Binding … (sera/NHS ratio)” value ([1]; Serum No. 19, Transmission Group) was “+ (which value is between 2 to 3)”. The “Binding … (sera/NHS ratio)” value ([1]; Serum No. 20, Non-Transmission Group) was “+ (which value is between 2 to 3)”, the “Percentage of sera samples demonstrating binding to peptide, transmitter” value ([1]; Transmitter / transmission group, n = 7) was “Seventy-seven” and the “Percent of the maternal serum samples that bound to the peptide” value ([1]; all 20 samples) was 80%. For the same sequence, the “Binding / reactivity of maternal sera to peptide (in words)” value [2] was “High reactivity but no difference between the two groups”, the “Number of Non-Transmitters which bound to peptide” value ([3]; Non-Transmitters, N = 12) was 0 and the “Percent of Non-Transmitters which bound to peptide” value ([3]; Non-Transmitters, N = 12) was 0%. The “Number of Transmitters which bound to peptide” value ([3]; Transmitters, N = 4) was 0, the “Percent of Transmitters which bound to peptide” value ([3]; Transmitters, N = 4) was 0% and the “Neutralizing activity of antisera generated to the peptide” value (HIV-1) was “do not demonstrate neutralizing activity”.

From patent publication US5556744A, “Methods and compositions for diagnosing and treating certain HIV infected patients” (The Trustees of the University of Pennsylvania, priority 1994, dated 1996)
